Measurements reported in US20030138816A1, “Methods and kits for diagnosing the occurrence or the phase of minimal change nephrotic syndrome (MCNS) in a human” (INSTITUT NATIONAL DE LA SANTE ET DE LA RECHERCHE MEDICALE, priority 2001, published 2003).
Residues, ends and D or L forms follow the SMILES beside them. *: point of attachment. Cbz = O=C(OCc1ccccc1)*

Tests used:
[1] = tested on: patient with Minimal Change Nephrotic Syndrome; experiment: Prednisone treatment of the patient selected for the subtractive library (onset of nephrotic syndrome, MCNS); type: in vivo, human; conditions: one patient, prednisone 1 mg/kg/day for four weeks, then tapered
PBMC from relapse = experiment: Incubation of PBMCs with the proteasome inhibitor MG132, c-maf protein in protein extracts; type: cell-based, human; conditions: co culture of PBMC from MCNS relapse with MG132, 10 μM, overnight
Description: 5) Quantification of IL4 mRNA by quantitative RT-PCR. Quantitative PCR was performed using the Light Cycler (Roche Molecular Biochemical). The samples (2 μl of the RT reaction, corresponding to 20 ng of total RNA) were amplified in a 20 μl reaction mixture containing […] each primer, and 1×mix LightCycler-DNA master SYBR Green buffer (Roche Molecular Biochemical). Carry-over was prevented by using dUTP instead of dTTP, and heat-labile Uracil DNA glyco-sylase (UDG). A standard curve was made using dilution of the RNA prepared from pUc9-IL4 plasmid. The PCR reaction was started by a denaturation at 95° C. for 2 min followed by 40 three step cycles (95° C.: 1 sec, 60° C.: 10 sec, and 72° C.: 24 sec). The relative value for each sample was calculated using the LightCycler analysis software. 6) Electromobility shift assays (EMSA), immunoprecipitations and Western blottings: Cytosolic and nuclear protein preparations as well as EMSA were performed as previously described (34). […] The subunit composition of DNA-protein complexes containing c-Maf was determined by preincubation of nuclear extracts with 1 μg of polyclonal antibodies raised against c-Maf (sc-7866), c-Fos (sc-7202), and c-Jun (sc-1694), (Santa Cruz, Biotechnology), before the addition of the probe. […] Band shifts were quantified using the ImageQuant V1.11 analysis software. […]

Compound: C[C@]12C=CC(=O)C=C1CC[C@@H]1[C@@H]2C(=O)C[C@@]2(C)[C@H]1CC[C@]2(O)C(=O)CO [prednisone]
- remission of nephrotic syndrome [1]: Complete remission was obtained within ten days

Compound: CC(C)C[C@@H](C=O)NC(=O)[C@H](CC(C)C)NC(=O)[C@H](CC(C)C)NC(=O)OCc1ccccc1 [MG132, carbobenzoxyl-leucinyl-leucinyl-leucinal-H] (Cbz-Leu-Leu-Leu-aldehyde)
- effect on L/c-maf protein (long form) (PBMC from relapse): no evident change
- effect on S/c-maf protein (short form) (PBMC from relapse): induces a sequestration of S/c-maf protein
